Experiment: mn = molality of the nth substance listed, in mol/kg
Conditions: 100 kPa, Liquid, Pycnometric method

O=C(O)[C@@H]1CCCN1 [L-proline] + O
mass density [kg/m3]
Conditions | 298.15 K | 303.15 K | 308.15 K | 313.15 K | 318.15 K
m1 = 0.025 | 997.86 | 996.45 | 994.82 | 992.99 | 991.02
m1 = 0.05 | 998.65 | 997.24 | 995.6 | 993.77 | 991.79
m1 = 0.075 | 999.43 | 998.01 | 996.37 | 994.53 | 992.55
m1 = 0.1 | 1000.2 | 998.77 | 997.12 | 995.28 | 993.29
m1 = 0.125 | 1000.96 | 999.52 | 997.86 | 996.01 | 994.02

CN(C)C(=N)NC(=N)N.Cl [N,N-dimethylimidodicarbonimidic diamide hydrochloride] + O
mass density [kg/m3]
Conditions | 298.15 K | 303.15 K | 308.15 K | 313.15 K | 318.15 K
m1 = 0.05 | 998.89 | 997.46 | 995.83 | 993.99 | 992.01
m1 = 0.1 | 1000.77 | 999.32 | 997.67 | 995.82 | 993.83
m1 = 0.15 | 1002.66 | 1001.21 | 999.56 | 997.69 | 995.69
m1 = 0.2 | 1004.6 | 1003.12 | 1001.46 | 999.59 | 997.6

Source: the NIST ThermoML archive (doi:10.1016/j.jct.2019.02.012)
